# Reference: US20170296521A1, “PHARMACEUTICAL COMPOSITION FOR SUPPRESSION OF THROMBOEMBOLISM AFTER STENT PLACEMENT” (priority 2014, published 2017)
# Where a name gives a salt, the structure may show the parent alone.
# Tested on: thrombus formation on stents in arteriovenous shunts
# Assay: rat stent thrombosis model (AV shunt with stents), amount of protein in thrombus
# Format: in vivo
# Conditions: for dose responsiveness of the antithrombotic effect: Example 1, Spearman's correlation coefficient test, P<0.001; for suppression of thrombus formation (rate of inhibition of amount of protein in thrombus): Example 1, FIG. 1A
# Protocol: Each rat was anesthetized with thiopental sodium (100 mg/mL/kg, i.p.) and placed on a warming mat. 18 minutes after the start of the anesthesia, polyethylene tubes (approximately 34 cm) containing four stents were inserted into the right and left carotid arteries and jugular veins to produce arteriovenous shunts (hereinafter, referred to as “AV shunts”). Blood flow was started in the shunts. 30 minutes after the start of the blood flow, the stents with thrombus attached thereto were taken out, and the amount of protein in the thrombus was measured.
# A 0.5% MC solution (10 mL/kg or 15 mL/kg) was orally administered to a control group. […] The collected thrombus-attached stents were stored at −20° C. until protein quantification. […] Then, the anti-FXa activity in the plasma was measured.
# Aspirin (5 mg/15 ml/kg) or clopidogrel (3 mg/10 ml/kg) was orally administered to each rat fasted overnight. […] A 0.5% MC solution (10 mL/kg or 15 mL/kg) was orally administered to a control group.
# Amount of protein in thrombus: The thrombus-attached stents were placed in 0.9 mL of a 0.1 N NaOH solution containing 2% Na2CO3 and boiled for approximately 30 minutes to solubilize protein.
compound,measurement,setting,value
CC(=O)Oc1ccccc1C(=O)O [aspirin],rate of suppression of thrombus formation,"Example 1, FIG. 2A, 5 mg/kg orally two hours before AV shunting",40%
same,rate of suppression of thrombus formation,"Example 1, FIG. 2A, 10 mg/kg orally two hours before AV shunting",47%
same,significance of the suppression of thrombus formation vs control,"Example 1, FIG. 2A, 5 and 10 mg/kg orally, Dunnett's test",no significant effect
same,suppression of thrombus formation,"Example 1, FIG. 2B, 10 mg/kg orally two hours before AV shunting",63%
same,suppression of thrombus formation,"Example 1, FIG. 2B, 25 mg/kg orally two hours before AV shunting",64%
same,suppression of thrombus formation,"Example 1, FIG. 2B, 50 mg/kg orally two hours before AV shunting",70%
same,suppression of thrombus formation,"Example 1, FIG. 2B, 100 mg/kg orally two hours before AV shunting",83%
same,dose responsiveness of the antithrombotic effect,,dose-dependent
same,rate of suppression of thrombus formation,"Example 2, FIG. 5A, aspirin 5 mg/kg orally alone",42%
"COC(=O)[C@H](c1ccccc1Cl)N1CCc2sccc2C1 [clopidogrel, clopidogrel sulfate]",suppression of thrombus formation,"Example 1, FIG. 3, 1 mg/kg orally two hours before AV shunting",40%
same,suppression of thrombus formation,"Example 1, FIG. 3, 3 mg/kg orally two hours before AV shunting",47%
same,suppression of thrombus formation,"Example 1, FIG. 3, 10 mg/kg orally two hours before AV shunting",84%
same,suppression of thrombus formation,"Example 1, FIG. 3, 30 mg/kg orally two hours before AV shunting",94%
same,dose responsiveness of the antithrombotic effect,,dose-dependent
same,rate of suppression of thrombus formation,"Example 2, FIG. 6A, clopidogrel 3 mg/kg orally alone",21%
"CN1CCc2nc(C(=O)N[C@@H]3C[C@@H](C(=O)N(C)C)CC[C@@H]3NC(=O)C(=O)Nc3ccc(Cl)cn3)sc2C1.Cc1ccc(S(=O)(=O)O)cc1 [edoxaban, N-(5-chloropyridin-2-yl)-N′-[(1S,2R,4S)-4-(dimethylcarbamoyl)-2-(5-methyl-4,5,6,7-tetrahydro[1,3]thiazolo[5,4-c]pyridine-2-carboxamido)cyclohexyl]oxamide]",suppression of thrombus formation (rate of inhibition of amount of protein in thrombus),0.3 mg/kg orally 30 minutes before AV shunting,37%
same,suppression of thrombus formation (rate of inhibition of amount of protein in thrombus),1 mg/kg orally 30 minutes before AV shunting,70%
same,suppression of thrombus formation (rate of inhibition of amount of protein in thrombus),3 mg/kg orally 30 minutes before AV shunting,86%
same,dose responsiveness of the antithrombotic effect,,dose-dependent
same,rate of suppression of thrombus formation,"Example 2, FIG. 5A, edoxaban 0.5 mg/kg orally alone",42%
same,rate of suppression of thrombus formation,"Example 2, FIG. 6A, edoxaban 0.5 mg/kg orally alone",25%
ticagrelor sulfate,suppression of thrombus formation,"Example 1, FIG. 4, 0.3 mg/kg orally two hours before AV shunting",67%
same,suppression of thrombus formation,"Example 1, FIG. 4, 1 mg/kg orally two hours before AV shunting",74%
same,suppression of thrombus formation,"Example 1, FIG. 4, 3 mg/kg orally two hours before AV shunting",89%
same,dose responsiveness of the antithrombotic effect,,dose-dependent
